Reference: a melting point compilation (Tetko et al.; mined from patent text by program, amines drawn as free bases though some values may be those of a salt)

`O=C(O)c1ccc(C(F)(F)F)c([N+](=O)[O-])c1` showed a melting point of 156 to 158 °C.
Work on `CCCCCCCCCCCCCCCCNc1ccc(C(=O)NS(=O)(=O)c2ccc(C)cc2)cc1` yielded a melting point of 123 to 124 °C.
Work on `COC(=O)Cc1cc(Cl)ccc1O` yielded a melting point of 84 to 85 °C.
With `NS(=O)(=O)c1cc(Cl)cc(Cl)c1O` the melting point was > 225 °C.
With `Cc1noc(NS(=O)(=O)c2ccc(S(=O)(=O)c3ccccc3)s2)c1Br` the melting point was 139 to 142 °C.
`CCCCC(Cc1ccc(OCCNC(=O)c2ccc(-c3ccccc3)cc2)cc1)C(=O)O` (centres undefined) gave a melting point of 130 to 131 °C.
Molecule `Cc1ccc(S(=O)(=O)Nc2ccc3nc(N4CCN(C)CC4)c(N4CCN(C)CC4)nc3c2)cc1` has a melting point of 234 to 237 °C.
`Cc1cc(N)nc(CCc2nc3cc(-c4ccc(S(=O)(=O)N5CCCC5)cc4)cnc3[nH]2)c1` gave a melting point of 171 °C.
Molecule `Cc1ccc(CC(C(=O)C(Cc2ccc(C)cc2C)N2C(=O)c3ccccc3C2=O)N2C(=O)c3ccccc3C2=O)c(C)c1` (centres undefined) has a melting point of 112 °C.
Molecule `Nc1nc(N)c(-c2ccc(Cl)cc2Cl)c(C=NO)n1` has a melting point of 260 to 265 °C.
`CCCCC=CCCCCC(=O)CCCCC=CCCCCC=O` gave a melting point of 80 to 83 °C.
`Cc1ccc(S(=O)(=O)NCC(CC(C)C)NS(=O)(=O)c2ccc(C)cc2)cc1` (centres undefined) gave a melting point of 138 to 140 °C.
With `O=C(O)C1=Cc2cc(-c3ccc(C(F)(F)F)cc3)ccc2OCC1` the melting point was 273 to 276 °C.
`CCN(CC)C(=O)c1ccc(C(F)(F)F)cc1-c1ccc(OC)c(OC)c1` gave a melting point of 108 to 110 °C.
Molecule `CC(c1oc2ccccc2c(=O)c1-c1cccc(F)c1)n1nc(-c2cc(F)c(O)c(F)c2)c2c(N)ncnc21` (centres undefined) has a melting point of 253 to 257 °C.
In the case of `CCCCc1nn(-c2cc(NC(=O)CC)ccc2Cl)c(=O)n1Cc1ccc(-c2ccccc2S(N)(=O)=O)cc1F`, the melting point is reported as 135 to 137 °C.
Molecule `CCSc1cc(C)nc(SCC)c1NC(=O)CCCCCCCCSc1nc2ccccc2[nH]1` has a melting point of 76 to 78 °C.
In the case of `CN(C)C/C=C/C(=O)Nc1cc2c(Nc3ccc(F)c(Br)c3)ncnc2cn1`, the melting point is reported as 163 to 166 °C.
Molecule `CCC(=O)c1cc2c(Cl)cccc2s1` has a melting point of 96 to 98 °C.
For `O=S(=O)(Oc1ccc2sc(-c3ccc(OCCN4CCCC4)cc3)cc2c1)C(F)(F)F`, the melting point was 95 to 99 °C.
`CC(=O)OC1OCC[C@@H]1NC(=O)CCC(=O)Nc1ccc(Nc2ccccc2)cc1` (some centres undefined) showed a melting point of 191 to 192 °C.
`Cc1noc(=O)n1C/C(F)=C\CCI` showed a melting point of 58.1 to 58.6 °C.
For `Nc1cc(Oc2ccccc2)ccc1[N+](=O)[O-]`, the melting point was 72 °C.
Molecule `CCN1C(=O)C(C)(C)C(=O)N(C)c2cc(CN(CCn3ccc4sccc4c3=O)Cc3cc(C)nn3C)ccc21` has a melting point of 144 to 146 °C.
For `OCCn1cc2c(n1)CN=C(c1ccccc1)c1cc(Cl)ccc1-2`, the melting point was 173 to 175 °C.
For `NCCN1C(=O)CN(c2ccc3c(c2)OCO3)C1=O`, the melting point was 171 to 173 °C.
Molecule `O=C(NC(=O)c1c(F)cccc1F)Nc1ccc(C(O)(C(F)(F)F)C(F)(F)F)cc1` has a melting point of 205 to 207 °C.
`CNc1cc(OC)c(-c2nc(C)c(-c3cccnc3)[nH]2)cc1Cl` gave a melting point of 205 to 206 °C.
`Cc1ccc(NC(=O)c2cc(Cl)ccc2NCC2CCN(C(C)C)CC2)nc1` gave a melting point of 147 to 148 °C.
Molecule `CC(C)CCCC(C)C1CCC2C3CC=C4CC(NCCCNC(=O)CCCCCNc5ccc([N+](=O)[O-])c6nonc56)CCC4(C)C3CCC12C` (centres undefined) has a melting point of 78 to 80 °C.
In the case of `CCN(CC)c1nsc(NC(=O)NC)c1C#N`, the melting point is reported as 182 to 183 °C.
`CCc1cc(C(=O)Nc2cc(Oc3ccc4nc(NC(=O)C5CC5)cn4n3)ccc2F)n(C)n1` gave a melting point of 236 °C.
`CCOC(=O)C1=C(COCCNS(=O)(=O)c2ccc(Cl)nc2)NC(C)=C(C(=O)OC)C1c1ccccc1Cl` (centres undefined) gave a melting point of 140 °C.
`CCCC(=O)N1N=C(c2ccc(N)cc2)c2cc(Cl)c(Cl)cc2CC1C` (centres undefined) showed a melting point of 193 to 194 °C.
For `CCc1nc2c(N)nc3ccccc3c2n1CCCCNC(=O)C1CCCCC1`, the melting point was 202 °C.
Molecule `O=C1NCc2c(Cl)nc3ccccc3c21` has a melting point of 169 to 171 °C.
In the case of `CC(=O)Nc1c(C)c2c(c(C)c1N(C)C)OC(C)(C)C2`, the melting point is reported as 142 to 143 °C.
Molecule `CC(C)Oc1ccc([N+](=O)[O-])cc1NC(=O)Nc1cccnc1` has a melting point of 231 to 232 °C.
Molecule `CN(C)c1ccc(C2OC(C)(C)N=C2c2ccccc2)cc1` (centres undefined) has a melting point of 123 °C.
Molecule `COC(=O)c1ccc(-c2nsc3nc4ccccc4n23)cc1` has a melting point of 204 to 206 °C.
`N#Cc1cnn(-c2c(Cl)cc(SC(F)(F)F)cc2Cl)c1N` gave a melting point of 185 to 187 °C.
With `O=C(O)COc1cccc2c1CCc1sc(S(=O)(=O)C(c3ccccc3)c3ccccc3)nc1-2` the melting point was 219 to 221 °C.
In the case of `O=C(NC1CCN(CCc2ccccc2F)C1)C12CC3CC(CC(C3)C1)C2` (centres undefined), the melting point is reported as 106 to 108 °C.
Molecule `COc1ccc(NN=C(Sc2cc(C)ccc2C)C(C)=O)cc1` has a melting point of 131 to 134 °C.
With `O=C(O)c1nn(Cc2ccccc2)c2c1CCc1cc(OCc3cncnc3)ccc1-2` the melting point was 236 to 237 °C.
For `COc1ccc(C(=S)Nc2ccccc2)cc1NS(=O)(=O)c1cc(Cl)cc(Cl)c1`, the melting point was 206 to 208 °C.
Work on `Cc1ccc(Oc2c(C)c(NC(=O)CC(C)(C)C)c(C)c3c2OC(C)(C)C3)cc1` yielded a melting point of 182 to 184 °C.
`CCN(CC)C(=O)n1ccc(S(=O)(=O)c2c(C)cc(Br)cc2C)n1` showed a melting point of 96 to 100 °C.
`CCCc1nc2c(N)nc3cc(OCCCCCCNS(C)(=O)=O)ccc3c2n1CCCCNS(C)(=O)=O` gave a melting point of 138 to 140 °C.
Work on `COc1ccc(NC2=NN(c3cccnc3)CC2)cc1` yielded a melting point of 116 to 119 °C.
In the case of `O=C(O)CCCc1cccc2c1OC=CO2`, the melting point is reported as 75 to 76 °C.
Work on `CC(=O)Nc1ccc(S(=O)(=O)c2cc(Br)nc(Br)c2)cc1` yielded a melting point of 211 °C.
`Clc1ccc(C2(CBr)OCC(COc3ccc4ccccc4c3)O2)c(Cl)c1` (centres undefined) showed a melting point of 118 °C.
For `N#Cc1c(-c2cccc(F)c2)c(Cl)n2c1CNCC2`, the melting point was 104 to 106 °C.
Molecule `COc1ccc(NCCCN)c2c1C(=O)c1ccccc1C2=O` has a melting point of 108 to 110 °C.
Molecule `CC(C)(C)Nc1nc(N2CCCC2)cc(N2CCNCC2)n1` has a melting point of 162 to 165 °C.
Work on `O=c1[nH]ncc(Cl)c1NCCCN1CCC(c2noc3cc(F)ccc23)CC1` yielded a melting point of 198 to 200 °C.
For `O=C(O)c1coc2ccc3ccc(O)cc3c2c1=O`, the melting point was 294 to 296 °C.
In the case of `CC12CCC(C1)C(C)(C)C2(S)CC#N` (centres undefined), the melting point is reported as 170 to 171 °C.
Work on `NC(=O)c1ccc(-c2ccc3nnn(Cc4ccc5ncccc5c4)c3n2)cc1C(F)(F)F` yielded a melting point of 230 to 232 °C.
In the case of `CC(C)c1cc(C(=O)O)cc(C(C)C)c1O`, the melting point is reported as 147 °C.
For `CCCCCCCCCCC1SCCCN1C(=S)Nc1cccc(Cl)c1` (centres undefined), the melting point was 63 to 65 °C.
`Nc1cc(F)cc(F)c1NC(=S)Nc1c(Cl)cccc1Cl` gave a melting point of 310 to 314 °C.
Work on `CCCn1c(=O)n(C2OC(CO)C(O)C2O)c2nc(N)[nH]c(=O)c21` (centres undefined) yielded a melting point of 151 to 153 °C.
In the case of `O=C(c1ccnc(F)c1)N1CCC[C@H](c2noc(-c3ccc(F)cc3)n2)C1`, the melting point is reported as 117 to 119 °C.
With `CC(=O)Nc1cccc(OC2CCNCC2)c1` the melting point was 164 to 165 °C.
In the case of `COc1cc2cc(Cl)nc(N3CCN(C(=O)Nc4ccc([N+](=O)[O-])cc4)CC3)c2cc1OC`, the melting point is reported as 227 to 228 °C.
For `NCC1COc2cc(Cl)cc(-c3ccccc3Cl)c2N1` (centres undefined), the melting point was 108 °C.
`CC1CC(c2c[nH]c(-c3ccc(F)cc3)c2-c2ccncc2)=CCN1C` (centres undefined) showed a melting point of 198 to 201 °C.
Work on `COc1ccc(CNc2nc(Cl)cc(Cn3c(C(=O)c4cc(C)cc(C#N)c4)c(C(C)C)c(=O)[nH]c3=O)n2)cc1` yielded a melting point of 337 to 338 °C.
`COc1ccc(N2CCN(c3ccc(-n4cccn4)cc3)CC2)cc1` gave a melting point of 208 °C.
For `NC(=O)[C@@H]1[C@H](Nc2nc(Nc3ccc4c(c3)CCC(NCC(F)F)CC4)ncc2Cl)[C@H]2C=C[C@@H]1C2` (some centres undefined), the melting point was 128 °C.
In the case of `COc1cccc(-c2nc(-c3ccccc3)c3ncc(Cl)cc3n2)c1`, the melting point is reported as 112 to 113 °C.
`Cc1c(F)cc2[nH]c(=O)c(=O)[nH]c2c1[N+](=O)[O-]` gave a melting point of 308 to 311 °C.
Work on `CC(C=O)=CC=CC(C)=CCO` yielded a melting point of 42 to 45 °C.
`CCCCCCCCc1c(CCC)nc2ncnn2c1N` showed a melting point of 165 °C.
Molecule `CCCCNC(=O)Nc1ccc(-c2ccncc2)c(C)n1` has a melting point of 164 to 165 °C.
`Cc1cccc(NC(=O)NCC(=O)Nc2ccccc2C(=O)c2cccs2)c1` showed a melting point of 208 to 210 °C.
`CCNC(=S)NC1CCCc2sccc21` (centres undefined) showed a melting point of 106 to 112 °C.
With `COc1ccc(COc2c(O)cc3c(c2Cl)CCN(C(=O)OC(C)(C)C)CC3c2ccc(O)cc2)cc1` (centres undefined) the melting point was 190 to 192 °C.
`CCOC(=O)c1c(CN(CC)CC)nc2sc3c(c2c1-c1ccc(OC)c(OC)c1)CCN(C(=O)OCC)C3` gave a melting point of 119 to 120 °C.
In the case of `NS(=O)(=O)c1ccc(-c2noc(-c3cnn4c(C5CC5)cc(-c5ccc(C(F)(F)F)cc5)nc34)n2)s1`, the melting point is reported as 290 °C.
For `COc1ccc(-c2nc3sccn3c2/C=C/C(=O)c2cccs2)cc1`, the melting point was 169 to 172 °C.
`COC(=O)COc1cccc(NC(=O)NCC(=O)N(CC(=O)OC(C)(C)C)c2ccccc2C(=O)c2ccccc2)c1` showed a melting point of 74 to 77 °C.
In the case of `CN1CC(CN2C(=O)C3(COc4cc5c(cc43)OCO5)c3ccccc32)OC1=O` (centres undefined), the melting point is reported as 98 to 102 °C.
Molecule `CCCCCOc1ccc2cc(CC[C@@](C)(N)COP(=O)(O)O)ccc2c1` has a melting point of 266 to 267 °C.
Molecule `COc1ccc(CCNCC(O)COc2ccc(-c3nc(-c4cccs4)c[nH]3)cc2)cc1OC` (centres undefined) has a melting point of 127 to 129 °C.
Molecule `C=Cc1ccc(O)c(-n2nc3ccccc3n2)c1` has a melting point of 98 to 99 °C.
Molecule `COC(=S)c1sc(C)c(Cl)c1OC` has a melting point of 82 to 83 °C.
With `C[C@H](O)[C@@H](CCc1cccc(Cl)c1Cl)n1cnc(C(N)=O)c1` the melting point was 70 to 75 °C.
Molecule `CCc1ccc(CC)n1Nc1ccc(N2CCOCC2)nn1` has a melting point of 186 to 189 °C.
With `NC(=O)c1nccn1C1Cc2cc(Cl)ccc2C1=O` (centres undefined) the melting point was 240 °C.
`CC=CC(=O)NCc1ccccc1` gave a melting point of 112 to 114 °C.
With `CN(C=O)c1ccc2[nH]cc(CC#N)c2c1` the melting point was 118 to 120 °C.
With `COC1=C(OC)C(=O)C(CCCCCCCCCCOC(C)=O)=C(C)C1=O` the melting point was 38 °C.
`C[C@@H]1CN(CC(=O)Nc2nccc3ccccc23)C[C@H](C)N1c1ncnc2sccc12` showed a melting point of 206 to 207 °C.
Molecule `C=CCOc1ccc(C(=O)C=Cc2cc(OC)cc(OC)c2C)cc1` has a melting point of 123 to 124 °C.
For `COC(=O)C1CCc2cc(C(=O)c3ccccc3)c(OC)cc21` (centres undefined), the melting point was 126 to 128 °C.
With `CCOC1Nc2c(ccc(C)c2OC(C)=O)C(=O)N2CCCC12` (centres undefined) the melting point was 145 to 147 °C.
